# According to patent US9765019B2, “Small-molecule-targeted protein degradation” (Brandeis University, priority 2011, dated 2017):
# Entries after “also recorded” stand apart in the source; their conditions may differ. Residues, ends and D or L forms follow the SMILES beside them. *: point of attachment. Cbz = O=C(OCc1ccccc1)*
# How the values were obtained:
# [1] = target: T1, human glutathione-S-transferase α-1 (Homo sapiens, UniProt P08263); assay: Degradation of pre-inhibited GST-α-1 in cell lysates (Western blot); assay type: biochemical; conditions: for Degradation of GST-α-1 in cell lysates: protein pre-treated with inhibitor, lysates from reticulocytes, HeLa, Cos and NIH 3T3 cells
# T1 construct: HA (N); made in house; host or cells: Escherichia coli (pOXO4-α1 vector)
# T1 sequence (P08263 1-222): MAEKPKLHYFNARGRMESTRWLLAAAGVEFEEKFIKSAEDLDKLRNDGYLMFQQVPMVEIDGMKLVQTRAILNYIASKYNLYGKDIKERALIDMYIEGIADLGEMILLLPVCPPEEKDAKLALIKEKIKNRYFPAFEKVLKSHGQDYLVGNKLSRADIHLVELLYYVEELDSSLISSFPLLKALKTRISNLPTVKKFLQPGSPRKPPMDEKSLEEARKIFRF
# Protocol: The gel was transferred onto a polyvinyldifluoride membrane in Towbin (3 g Tris/14.4 g glycine) buffer, 100V for 1.2 hours then 40V for 3 hours for 18% gels, and 100 V for 1.2 hours for 12% gels. The membrane was blocked with 3% non-fat milk in Tris buffered saline (100 mM Tris base, 500 mM NaCl, pH 7.6) for one hour, then directly added to a solution of anti HA-HRP conjugated antibody in 0.5% non-fat milk in Tris buffered saline with 0.05% tween-20 for 2 hours. Membrane was washed twice with Tris buffered saline with 0.05% Tween 20 for 10 minutes, then washed once with Tris buffered saline for 15 minutes. The residual buffer was removed then exposed to ECL Plus™ (GE healthcare) for 5 minutes. Membrane was visualized by exposure to film (HyBlot CL, Denville Scientific). For in cell degradation assays, the membrane was cut in half (at approximately 40 kiloDaltons) and the lower molecular weight portion was probed and visualized with anti-GAPDH-HRP, protocol same as for anti-HA except Tris buffered saline contained 150 mM NaCl, not 500 mM. The higher molecular weight portion of the membrane was probed and visualized with anti-HA-HRP.
# Human glutathione-S-transferase α-1 bearing an N-terminal HA tag was recombinantly expressed in Escherichia coli using the pOXO4-α1 vector. This was purified using glutathione affinity chromatography (GST-Bind™, Novagen). Escherichia coli dihydrofolate reductase bearing an N-terminal (His)6 tag and a C-terminal HA tag was recombinantly expressed in Escherichia coli using a pET28a vector. This was purified using Ni-NTA resin (Qiagen).
# The cells were then serum starved for 2 days in the case of Cos and HeLa cells and 1 day in the case of NIH3T3 cells. The cells were washed with phosphate buffered saline and then trypsinized. Cells were collected, and an equal volume of complete medium was added. Cells were pelleted by centrifugation and the supernatant was aspirated. The cell pellet was washed three times with phosphate buffered saline. Cell pellets were stored at −80° C. until required. Cells were thawed on ice and maintained at 4° C. until required for the assay. […] The cells were lysed in a Dounce homogenizer (10 strokes), and then centrifuged at 14000 rpm for 30 minutes. The clarified lysate was normalized to an optimized concentration of 1 mg/mL (Bradford assay, Biorad®, as per manufacturer's instructions, using immunoglobulin as a standard) with lysis buffer. A 10×ATP regeneration buffer was made consisting of the following 1 mg/mL creatine kinase (Roche Diagnostics®), 600 mM creatine phosphate, 100 mM ATP, 200 mM Tris pH 8.0, 600 mM MgCl2. This was incubated at 37° C. for 30 minutes prior to use. Assays were conducted in […] total volume [including 1×ATP regeneration buffer, and 120 ng of HA-tagged protein (1 μL) preinhibited with 100 μM ethacrynic acid-derived inhibitor, or 1 μM trimethoprim-derived inhibitor] in 250 μL PCR tubes. Prior to assay 50 μL Chill Out wax (Biorad®) was overlaid on the top of the vial. 15 μL aliquots were extracted and diluted into 6 μL of 5× reducing SDS PAGE loading buffer and immediately frozen by being placed into dry ice. These were stored at −80° C. until required. Samples were thawed at 100° C. and continued to be boiled for 5 minutes. The samples were then centrifuged at 14,000 rpm on a microcentrifuge for 30 minutes and loaded onto an 18% polyacrylamide SDS PAGE gel, and Western blotted as per Example 2.
# eDHFR-HA-GST-α1 = target: T2, eDHFR-HA-GST-α1 (UniProt P08263+P0ABQ4); assay: Degradation of eDHFR-HA-GST-α1 ectopically expressed in HeLa cells; assay type: cell-based; conditions: for Degradation of eDHFR-HA-GST-α1: cycloheximide treated HeLa cells
# T2 construct: expressed in transfected cells; host or cells: HeLa cells
# T2 sequence (P0ABQ4+P08263 with tags, fused parts or gaps): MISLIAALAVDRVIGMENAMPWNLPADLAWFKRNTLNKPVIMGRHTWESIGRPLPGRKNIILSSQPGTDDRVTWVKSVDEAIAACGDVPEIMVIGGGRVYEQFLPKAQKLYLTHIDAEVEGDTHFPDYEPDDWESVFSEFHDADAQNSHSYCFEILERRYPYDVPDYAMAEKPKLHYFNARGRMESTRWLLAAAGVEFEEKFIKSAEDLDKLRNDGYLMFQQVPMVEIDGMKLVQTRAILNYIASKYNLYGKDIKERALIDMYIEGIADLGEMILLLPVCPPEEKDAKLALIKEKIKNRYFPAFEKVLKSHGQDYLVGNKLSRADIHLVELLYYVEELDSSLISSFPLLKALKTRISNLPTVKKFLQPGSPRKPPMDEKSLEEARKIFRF
# From the text: FIG. 5 depicts degradation of GST-α1-HA in HeLa cell lysates and eDHFR-HA-GST in HeLa cells.
# endogenous GST-π = assay: Degradation of endogenous GST-π in whole cells (immunoblot); assay type: cell-based; conditions: two hours
# Protocol: FIG. 12 depicts degradation of endogenous GST-π. Cells were incubated with EA-Boc3Arg for 2 hours. Degradation was monitored by immuno-blotting with anti-GST antibodies. EA=right bar; EA-Boc3-Arg=left bar.
# The ability of EA-Boc3Arg to degrade endogenous GST-π in the context of whole cells was also investigated. […] The Boc3Arg moiety can regulate endogenous protein levels in vivo.
# proteasome = assay: Effect of proteasome inhibitors on Boc3Arg-induced degradation (lysates and whole HeLa cells); conditions: GST-α-1 in cell lysates; eDHFR fusion proteins in HeLa cells
# eDHFR-HA-GFP = eDHFR-HA-GFP (Escherichia coli, UniProt P0ABQ4); conditions: transfected HeLa cells
# Protocol: FIG. 6 depicts degradation of eDHFR-HA in cell lysates and degradation of eDHFR fusion proteins in HeLa cells. (A) Degradation of eDHFR in HeLa cells lysates; (B) quantification of panel (A); (C) Global protein stability (GPS) assay. Cells co-express red fluorescent protein (RFP) and DHFR-HA-GFP from a bicistronic construct. Red and green fluorescence was measured by flow cytometry.
# Protein degradation in whole cells was also assessed. eDHFR-HA-GFP was co-expressed with Discosoma sp. red fluorescent protein (RFP) in a bicistronic construct under control of a CMV promoter, with DHFR-HA-GFP translation occurring at the internal ribosome binding site. Thus a single mRNA is responsible for the production of both RFP and DHFR-HA-GFP, so that similar ratios of both proteins should be produced in all transfected cells. Changes in the relative intensities of red and green fluorescence are measured by flow cytometry, providing a facile and quantitative measure of the degradation of DHFR-HA-GFP in living cells and real time.
# Cells were grown to 90% confluence in Dulbecco's Modified Minimal Essential Medium supplemented with 10% fetal bovine serum, 1×L-glutamine with no antibiotic in a 6 well plate. At this point the cells were serum starved, and then transfected using […] plasmid (expression driven by the cytomegalovirus promoter; gene coding for enhanced green fluorescent protein fused to the C-terminus of E. coli dihydrofolate reductase): 2 μL Transfectin™ (Biorad) per well. 48 hours after transfection, media was once again aspirated, and fresh serum free media was added. Cycloheximide (final concentration 100 μg/mL) was then added to the cells and after 5 minutes, 30 μM inhibitor was added. At each time point (45 minutes), media was aspirated, cells were trypsinized, centrifuged and washed three times with phosphate buffered saline. Cell pellets were flash frozen in dry ice, and then stored indefinitely at −80° C. The cells were thawed on ice, and then resuspended in lysis buffer (150 mM sucrose, 200 mM sodium phosphate, 43 mM MgCl2, pH 7.8, 0.1% triton X-100). Cells were lysed by two freeze/thaw cycles (−80° C. for 5 minutes, then 4° C. for 10 minutes). Lysate concentrations were normalized by dilution with lysis buffer such that they gave the same A595 when diluted into Bradford assay dye (Biorad).
compound,measurement,setting,value
"C=C(CC)C(=O)c1ccc(OCC(=O)NCCCCCCNC(=O)C(CCCNC(=N)NS(=O)(=O)c2ccc(C)cc2)NOC(=O)Cc2ccccc2)c(Cl)c1Cl (centres unmarked) [Compound 2, N-(6-(2-(2,3-Dichloro-4-(2-methylenebutanoyl)phenoxy)acetamido)hexyl)-2-(benzylcarbonyloxyamino)-5-(3-tosylguanidino)pentanamide]",Degradation of GST-α-1 in cell lysates,[1],functional degradation tag
"C=C(CC)C(=O)c1ccc(OCC(=O)O)c(Cl)c1Cl [EA, ethacrynic acid, reference compound]",Degradation of eDHFR-HA-GST-α1,eDHFR-HA-GST-α1,does not
same,Degradation of GST-α-1 in cell lysates,[1],No degradation was observed
"C=C(CC)C(=O)c1ccc(OCC(=O)NCCCCCCNC(=O)C(CCCNC(=NC(=O)OC(C)(C)C)NC(=O)OC(C)(C)C)NC(=O)OC(C)(C)C)c(Cl)c1Cl (centres unmarked) [EA-Boc3Arg, N-(6-(2-(2,3-Dichloro-4-(2-methylenebutanoyl)phenoxy)acetamido)hexyl)-5-(2,3-di-t-butoxycarbonylguanidino)-2-(t-butoxycarbonylamino)pentanamide]",Degradation of eDHFR-HA-GST-α1,eDHFR-HA-GST-α1,can cause degradation
same,Degradation of GST-α-1 in cell lysates,[1],Degradation was observed
same,Degradation of GST-α-1 in cell lysates,[1]; listed as 1,promotes the degradation
same,depletion in the GST-π signal,endogenous GST-π,30%
"CC(C)(C)OC(=O)N=C(NCCCC(NC(=O)OC(C)(C)C)C(=O)NCCCCCCSc1ccc([N+](=O)[O-])c2nonc12)NC(=O)OC(C)(C)C (centres unmarked) [Fur-Boc3Arg, 5-(2,3-Di-tert-butoxycarbonylguanidino)-2-(tert-butoxycarbonylamino)-N-(6-(7-nitrobenzo[c][1,2,5]oxadiazol-4-ylthio)hexyl)pentan amide]",Degradation of Fur-Boc3Arg-modified GST-α-1,[1]; NIH 3T3 cell lysates,readily degraded; also recorded: induces the degradation
CC(C)C[C@@H](C=O)NC(=O)[C@H](CC(C)C)NC(=O)[C@H](CC(C)C)NC(=O)OCc1ccccc1 [MG 132] (Cbz-Leu-Leu-Leu-aldehyde),Effect on Boc3Arg-induced degradation,proteasome,block; also recorded: prevent degradation
"Cc1cc(C(=O)CN2CCCC2)c(C)n1-c1ccc(F)cc1 [PU1, reference compound]",Effect on degradation of eDHFR-HA-GFP,eDHFR-HA-GFP,slower
CC(C)C[C@H](NC(=O)[C@H](Cc1ccccc1)NC(=O)c1cnccn1)B(O)O [bortezomib],Effect on degradation of eDHFR-HA-GST-α1 by EA-Boc3Arg,eDHFR-HA-GST-α1; cycloheximide and non-cycloheximide treated HeLa cells,retards degradation
same,Effect on Boc3Arg-induced degradation,proteasome,block; also recorded: prevent degradation
same,Effect on degradation of eDHFR-HA-GFP,eDHFR-HA-GFP,slower
CC(=O)N[C@@H](CSC(=O)[C@]1([C@@H](O)C(C)C)NC(=O)[C@H](C)[C@@H]1O)C(=O)O [lactacystin],Effect on Boc3Arg-induced degradation,proteasome,block
